The values that follow come from PubChem BioAssay (NCI).

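Assay format: 96-well plates, 48-hour exposure. Abbreviation: GI50, concentration required for 50% inhibition of growth. TGI denotes the concentration required for complete inhibition of growth.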

Among the test systems are SK-MEL-5 melanoma; COLO 205 colon; SR leukemia; T-47D breast; OVCAR-8 ovarian; OVCAR-5 ovarian; IGROV1 ovarian; NCI/ADR-RES ovarian; NCI-H522 lung; UACC-62 melanoma.
What all share (assay): NCI tumour cell line growth inhibition, 48 h

For the molecule `C=C1C(=O)O[C@H]2[C@H]1CC/C(COC(=O)NCCc1ccc(OC)cc1)=C\CC[C@@]1(C)O[C@@H]21`, the GI50 in the experiment with SK-MEL-5 melanoma is 6.23 µM; in the experiment with COLO 205 colon, 1.94 µM; in the experiment with SR leukemia, 2.07 µM; in the experiment on T-47D breast it was 2.47 µM; with OVCAR-8 ovarian it was 2.77 µM; with OVCAR-5 ovarian it was 2.65 µM. Moreover, the GI50 with IGROV1 ovarian was 2.61 µM; with NCI/ADR-RES ovarian, 10 µM; in the experiment with NCI-H522 lung, 1.82 µM; in the experiment with UACC-62 melanoma, 1.25 µM. For the same molecule, the TGI in the experiment with SK-MEL-5 melanoma stood at 19.1 µM; with COLO 205 colon it was 4.18 µM; in the experiment with SR leukemia, 7.87 µM; in the experiment on T-47D breast, 6.52 µM; in the experiment on OVCAR-8 ovarian, 7.7 µM; in the experiment on OVCAR-5 ovarian, 8.27 µM. Moreover, the TGI with IGROV1 ovarian turned out to be 7.32 µM; in the experiment on NCI/ADR-RES ovarian it was 32.6 µM; in the experiment with NCI-H522 lung it was 3.93 µM; in the experiment with UACC-62 melanoma, 3.05 µM.
In the case of `Cc1ccc(NC(=O)c2ccnc(C(F)(F)F)c2)cc1-c1cc(OCCO)nc(N2CCOCC2)c1`, the GI50 is 1.5 µM in the experiment with SK-MEL-5 melanoma; 0.445 µM in the experiment on COLO 205 colon; 0.613 µM with SR leukemia; 3.31 µM with T-47D breast; 4.08 µM with OVCAR-8 ovarian; 1.09 µM with OVCAR-5 ovarian. The GI50 is 1.61 µM in the experiment on IGROV1 ovarian, 2.63 µM in the experiment with NCI/ADR-RES ovarian, 1.55 µM in the experiment on NCI-H522 lung and 0.315 µM in the experiment with UACC-62 melanoma. The TGI in the experiment on SK-MEL-5 melanoma was 4.71 µM; in the experiment on COLO 205 colon, 11.8 µM; with SR leukemia it was more than 100 µM; with T-47D breast it was more than 100 µM; in the experiment with OVCAR-8 ovarian, more than 100 µM; with OVCAR-5 ovarian it was 28.3 µM. For the same molecule, the TGI with IGROV1 ovarian worked out at 40 µM; in the experiment with NCI/ADR-RES ovarian, 11.5 µM; with NCI-H522 lung it was 17.2 µM; in the experiment on UACC-62 melanoma it was 4.54 µM.
As for `COc1ccc(NC2=C(Sc3nc(C)cc(C)n3)C(=O)N(Cc3ccccc3)C2=O)cc1Cl`, the GI50 in the experiment with SK-MEL-5 melanoma is 33.9 µM; in the experiment with COLO 205 colon, more than 160 µM; with SR leukemia, 37.5 µM; in the experiment with T-47D breast, 25.1 µM; in the experiment with OVCAR-8 ovarian, 99.2 µM; in the experiment with OVCAR-5 ovarian, more than 160 µM. Also, the GI50 in the experiment with IGROV1 ovarian was 108 µM; with NCI/ADR-RES ovarian it was more than 160 µM; in the experiment with NCI-H522 lung, more than 160 µM; in the experiment on UACC-62 melanoma, 22.5 µM. In addition, the TGI in the experiment on SK-MEL-5 melanoma, with COLO 205 colon, in the experiment on SR leukemia, in the experiment on T-47D breast, in the experiment with OVCAR-8 ovarian and in the experiment on OVCAR-5 ovarian was more than 160 µM each time. In addition, the TGI in the experiment on IGROV1 ovarian, with NCI/ADR-RES ovarian, in the experiment with NCI-H522 lung and with UACC-62 melanoma was more than 160 µM in each case.
In the case of `CC1C(=O)N=C2C(=CN(Cc3ccccc3)c3ccccc32)C(=O)N1C` (stereo not given), the TGI in the experiment with SK-MEL-5 melanoma, with COLO 205 colon, in the experiment on SR leukemia, with T-47D breast, with OVCAR-8 ovarian and with OVCAR-5 ovarian was more than 100 µM each time. Moreover, the TGI with IGROV1 ovarian, with NCI/ADR-RES ovarian, in the experiment with NCI-H522 lung and in the experiment with UACC-62 melanoma was more than 100 µM each time.
For the molecule `COC(=O)Nc1ccc2ccc3c(NC(=O)OC)ccc4ccc1c2c43` (tested in a mixture with another compound), the GI50 in the experiment on SK-MEL-5 melanoma was 4.42 µM; in the experiment on COLO 205 colon it was 6.08 µM; in the experiment with SR leukemia, 2.51 µM; with T-47D breast it was 9.23 µM; in the experiment with OVCAR-8 ovarian it was 14.3 µM; in the experiment on OVCAR-5 ovarian, 13.9 µM. Also, the GI50 with IGROV1 ovarian was 7.98 µM; in the experiment with NCI/ADR-RES ovarian, 4.59 µM; in the experiment with NCI-H522 lung, 11 µM; in the experiment on UACC-62 melanoma, 5.83 µM. In addition, the TGI in the experiment with SK-MEL-5 melanoma is more than 50 µM; in the experiment with COLO 205 colon, 30.5 µM; with SR leukemia, more than 50 µM; in the experiment on T-47D breast, 35.6 µM; in the experiment on OVCAR-8 ovarian, more than 50 µM; with OVCAR-5 ovarian, more than 50 µM. Moreover, the TGI with IGROV1 ovarian is more than 50 µM; in the experiment on NCI/ADR-RES ovarian it was 19.2 µM; with NCI-H522 lung, more than 50 µM; in the experiment on UACC-62 melanoma it was more than 50 µM.
`N#C/C(=C\c1cn(-c2ccccc2)c2ccccc12)C(=O)O`: the GI50 with SK-MEL-5 melanoma is 38.4 µM; in the experiment on COLO 205 colon, 85.9 µM; in the experiment with SR leukemia it was 68.8 µM; with T-47D breast it was 29.6 µM; in the experiment on OVCAR-8 ovarian, 44.6 µM; in the experiment on OVCAR-5 ovarian, 95.5 µM. For the same molecule, the GI50 was 49.3 µM in the experiment on IGROV1 ovarian, 57.7 µM with NCI/ADR-RES ovarian, 29 µM with NCI-H522 lung and 23.8 µM with UACC-62 melanoma. Moreover, the TGI in the experiment on SK-MEL-5 melanoma, in the experiment on COLO 205 colon, in the experiment on SR leukemia, with T-47D breast, in the experiment with OVCAR-8 ovarian and with OVCAR-5 ovarian was more than 100 µM in each case. For the same molecule, the TGI in the experiment on IGROV1 ovarian was more than 100 µM; with NCI/ADR-RES ovarian, more than 100 µM; with NCI-H522 lung, 88.8 µM; in the experiment on UACC-62 melanoma it was 85.6 µM.
For `Cc1cccc(C(C)O)n1` (stereo not given), the TGI with SK-MEL-5 melanoma, in the experiment with COLO 205 colon, in the experiment on SR leukemia, in the experiment with T-47D breast, in the experiment on OVCAR-8 ovarian and in the experiment with OVCAR-5 ovarian was more than 100 µM in each case. For the same molecule, the TGI with IGROV1 ovarian, in the experiment with NCI/ADR-RES ovarian, with NCI-H522 lung and in the experiment with UACC-62 melanoma was more than 100 µM in each case.
In the case of `S=C(Nc1ccccc1)c1ccccn1`, the GI50 was 69.2 µM in the experiment with SK-MEL-5 melanoma; 9.34 µM with COLO 205 colon; 25.5 µM in the experiment with SR leukemia; more than 100 µM in the experiment with T-47D breast; 75.3 µM with OVCAR-8 ovarian; more than 100 µM in the experiment with OVCAR-5 ovarian. For the same molecule, the GI50 is 42.4 µM in the experiment on IGROV1 ovarian, 52.1 µM in the experiment on NCI/ADR-RES ovarian, 14 µM in the experiment with NCI-H522 lung and 70.7 µM in the experiment on UACC-62 melanoma. Also, the TGI in the experiment on SK-MEL-5 melanoma, with COLO 205 colon, in the experiment with SR leukemia, with T-47D breast, with OVCAR-8 ovarian and with OVCAR-5 ovarian was more than 100 µM each time. The TGI in the experiment on IGROV1 ovarian, in the experiment with NCI/ADR-RES ovarian, with NCI-H522 lung and in the experiment with UACC-62 melanoma was more than 100 µM in each case.
